The source of these data is US11691986B2, “PTEFB inhibiting macrocyclic compounds” (Bayer Aktiengesellschaft, priority 2017, dated 2023).

Each structure is given as a SMILES string.

In one test the target is T1, CDK9/CycT1 (Homo sapiens, UniProt P50750).
T1 construct: Recombinant full-length His-tagged human CDK9 and CycT1; His; purchased Life Technologies PV4131; host or cells: insect cells
Description: CDK9/CycT1 high ATP kinase assay (TR-FRET). Format: biochemical. The following applies: 2 mM ATP; for IC50: Method 1b; for Selectivity high ATP CDK9 over high ATP CDK2: IC50 (high ATP CDK2)/IC50 (high ATP CDK9): minimal values where CDK9 IC50 is at the assay limit of about 1-2 nM. The method, then: 1b. CDK9/CycT1 High ATP Kinase Assay
CDK9/CycT1-inhibitory activity of compounds of the present invention at a high ATP concentration after preincubation of enzyme and test compounds was quantified employing the CDK9/CycT1 TR-FRET assay as described in the following paragraphs.
Recombinant full-length His-tagged human CDK9 and CycT1, expressed in insect cells and purified by Ni-NTA affinity chromatography, were purchased from Life Technologies (Cat. No PV4131). As substrate for the kinase reaction biotinylated peptide biotin-Ttds-YISPLKSPYKISEG (C-terminus in amide form) was used which can be purchased e.g. form the company JERINI peptide technologies (Berlin, Germany).
For the assay 50 nl of a 100 fold concentrated solution of the test compound in DMSO was pipetted into either a black low volume 384 well microtiter plate or a black 1536 well microtiter plate (both Greiner Bio-One, Frickenhausen, Germany), 2 μl of a solution of CDK9/CycT1 in aqueous assay buffer [50 mM Tris/HCl pH 8.0, 10 mM MgCl2, 1.0 mM dithiothreitol, 0.1 mM sodium ortho-vanadate, 0.01% (v/v) Nonidet-P40 (Sigma)] were added and the mixture was incubated for 15 min at 22° C. to allow pre-binding of the test compounds to the enzyme before the start of the kinase reaction. […] The concentration of CDK9/CycT1 was adjusted depending of the activity of the enzyme lot and was chosen appropriate to have the assay in the linear range, typical concentrations were in the range of 0.5 μg/ml. The reaction was stopped by the addition of 3 μl of a solution of TR-FRET detection reagents (0.33 μM streptavidine-XL665 [Cisbio Bioassays, Codolet, France] and 1.67 nM anti-RB(pSer807/pSer811)-antibody from BD Pharmingen [#558389] and 2 nM LANCE EU-W1024 labeled anti-mouse IgG antibody [Perkin-Elmer, product no. AD0077]) in an aqueous EDTA-solution (167 mM EDTA, 0.2% (w/v) bovine serum albumin in 100 mM HEPES pH 7.5).
The resulting mixture was incubated 1 h at 22° C. to allow the formation of complex between the phosphorylated biotinylated peptide and the detection reagents. Subsequently the amount of phosphorylated substrate was evaluated by measurement of the resonance energy transfer from the Eu-chelate to the streptavidine-XL. Therefore, the fluorescence emissions at 620 nm and 665 nm after excitation at 350 nm was measured in a TR-FRET reader, e.g. a Pherastar (BMG Labtechnologies, Offenburg, Germany) or a Viewlux (Perkin-Elmer). The ratio of the emissions at 665 nm and at […] was taken as the measure for the amount of phosphorylated substrate. The data were normalised (enzyme reaction without inhibitor=0% inhibition, all other assay components but no enzyme=100% inhibition).
(In general: In TR-FRET formats the signal depends on donor and acceptor labels being close together.)

For a further test, the system named is A2780 cells. Kind of test: Proliferation assay, A2780 (Cell Titre-Glo). It is filed as cell-based. Particulars: Homo sapiens; A2780, 72-hour exposure; read-out: Inhibition of A2780 cell proliferation IC50. The method, then:
(§1) A2780 human ovarian carcinoma cells (ECACC #93112519) and non-adherent MOLM-13 human acute myeloid leukemia cells (DSMZ ACC 554) were seeded at a density of 3,000 cell/well (A2780) or 5,000 cells/well (MOLM-13) in a 96-well multititer plate in 150 μL of growth medium supplemented 10% fetal calf serum. After 24 hours, cell viability of one plate (zero-point plate) was determined with the Cell Titre-Glo Luminescent Cell Viability Assay (Promega), while the medium of the other plates was supplemented with the test substances in various concentrations (0 μM, as well as in the range of 0.0001-10 μM; the final concentration of the solvent dimethyl sulfoxide was adjusted to 0.1%) using a Hewlett-Packard HP D300 Digital Dispenser. Cell viability was assessed after 72-hour exposure with the Cell Titre-Glo Luminescent Cell Viability Assay (Promega). IC50 values (inhibitory concentration at 50% of maximal effect) were determined by means of a 4 parameter fit on measurement data which were normalized to vehicle (DMSO) treated cells (=100%) and measurement readings taken immediately before compound exposure (=0%).

A further test concerns MOLM-13 cells. Description: Proliferation assay, MOLM-13 (Cell Titre-Glo). Format: cell-based. Particulars: Homo sapiens; MOLM-13, 72-hour exposure; read-out: Inhibition of MOLM-13 cell proliferation IC50. The method, then: as §1
Another test concerns B16F10 cells. Description: Proliferation assay, B16F10 (crystal violet). Format: cell-based. The following applies: Mus musculus, B16-F10, 96 h; B16F10, 4 days; read-out: Inhibition of B16F10 cell proliferation IC50. The method, then: Cultivated tumour cells (HeLa, human cervical tumour cells, ATCC CCL-2; NCI-H460, human non-small cell lung carcinoma cells, ATCC HTB-177; DU 145, hormone-independent human prostate carcinoma cells, ATCC HTB-81; HeLa-MaTu-ADR, multidrug-resistant human cervical carcinoma cells, EPO-GmbH Berlin; Caco-2, human colorectal carcinoma cells, ATCC HTB-37; B16F10, mouse melanoma cells, ATCC CRL-6475) were plated at a density of 5,000 cells/well (DU145, HeLa-MaTu-ADR), 3,000 cells/well (NCI-H460, HeLa), 1,500 cells/well (Caco-2), or 1,000 cells/well (B16F10) in a 96-well multititer plate in 200 μL of their respective growth medium supplemented 10% fetal calf serum. After 24 hours, the cells of one plate (zero-point plate) were stained with crystal violet (see below), while the medium of the other plates was supplemented with the test substances in various concentrations (0 μM, as well as in the range of 0.0001-10 μM; the final concentration of the solvent dimethyl sulfoxide was adjusted to 0.1%) using a Hewlett-Packard HP D300 Digital Dispenser. The cells were incubated for 4 days in the presence of test substances. Cell proliferation was determined by staining the cells with crystal violet: the cells were fixed by adding 20 μl/measuring point of an 11% glutaric aldehyde solution for 15 minutes at room temperature. After three washing cycles of the fixed cells with water, the plates were dried at room temperature. The cells were stained by adding 100 μl/measuring point of a 0.1% crystal violet solution (pH 3.0). After three washing cycles of the stained cells with water, the plates were dried at room temperature. The dye was dissolved by adding 100 μl/measuring point of a 10% acetic acid solution. The extinction was determined by photometry at a wavelength of 595 nm. The change of cell number, in percent, was calculated by normalization of the measured values to the extinction values of the zero-point plate (=0%) and the extinction of the untreated (0 Wm) cells (=100%). The IC50 values (inhibitory concentration at 50% of maximal effect) were determined by means of a 4 parameter fit.

T1 sequence (P50750 whole entry): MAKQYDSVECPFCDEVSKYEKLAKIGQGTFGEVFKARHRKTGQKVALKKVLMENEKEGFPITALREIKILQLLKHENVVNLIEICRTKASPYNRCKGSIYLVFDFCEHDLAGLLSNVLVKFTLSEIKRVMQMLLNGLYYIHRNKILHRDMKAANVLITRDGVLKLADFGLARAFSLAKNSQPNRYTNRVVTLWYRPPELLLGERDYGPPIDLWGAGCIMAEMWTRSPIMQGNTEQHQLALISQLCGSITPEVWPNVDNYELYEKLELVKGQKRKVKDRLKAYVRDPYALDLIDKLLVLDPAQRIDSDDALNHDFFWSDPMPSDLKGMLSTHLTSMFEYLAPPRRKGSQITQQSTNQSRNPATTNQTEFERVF
T1 sequence (O60563 whole entry partner): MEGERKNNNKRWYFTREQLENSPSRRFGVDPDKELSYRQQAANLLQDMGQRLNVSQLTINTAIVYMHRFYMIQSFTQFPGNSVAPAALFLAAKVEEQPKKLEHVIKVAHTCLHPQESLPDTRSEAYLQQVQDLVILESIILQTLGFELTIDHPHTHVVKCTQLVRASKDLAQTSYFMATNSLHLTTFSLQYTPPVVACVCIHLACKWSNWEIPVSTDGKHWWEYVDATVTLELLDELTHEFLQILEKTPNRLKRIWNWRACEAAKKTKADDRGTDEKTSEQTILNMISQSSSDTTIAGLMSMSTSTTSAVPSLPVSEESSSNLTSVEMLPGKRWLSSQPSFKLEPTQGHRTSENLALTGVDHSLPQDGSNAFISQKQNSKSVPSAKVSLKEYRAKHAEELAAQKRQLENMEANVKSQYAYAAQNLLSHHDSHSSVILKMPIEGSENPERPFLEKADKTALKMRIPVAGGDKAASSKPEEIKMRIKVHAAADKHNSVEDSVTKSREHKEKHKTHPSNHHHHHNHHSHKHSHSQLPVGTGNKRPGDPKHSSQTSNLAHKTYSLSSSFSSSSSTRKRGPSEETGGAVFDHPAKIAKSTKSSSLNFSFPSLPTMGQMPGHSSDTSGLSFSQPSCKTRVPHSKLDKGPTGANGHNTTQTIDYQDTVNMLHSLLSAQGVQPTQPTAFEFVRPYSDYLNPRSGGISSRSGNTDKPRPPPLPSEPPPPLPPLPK

As for `CC1CCCNc2cc(ccc2F)-c2nc(ncc2F)Nc2cc(CS(C)(=O)=O)cc(c2)O1` (racemic) [Example 8, (rac)-3,20-difluoro-14-methyl-10-[(methylsulfonyl)methyl]-13-oxa-5,7,18,25-tetraazatetracyclo[17.3.1.1^2,6.1^8,12]pentacosa-1(23),2(25),3,5,8(24),9,11,19,21-nonaene], the values for the IC50 on CDK9/CycT1 and with A2780 cells were 0.8 nM and 7.7 nM, respectively. Moreover, the “Selectivity high ATP CDK9 over high ATP CDK2: IC50 (high ATP CDK2)/IC50 (high ATP CDK9)” value (“Selectivity high ATP CDK9” below) on CDK9/CycT1 is on record as 606.

Consider `CS(=N)(=O)Cc1cc2cc(c1)OCCCNc1cc(ccc1F)-c1nc(ncc1F)N2` (racemic) [Example 3, (rac)-3,19-difluoro-10-[(S-methylsulfonimidoyl)methyl]-13-oxa-5,7,17,24-tetraazatetracyclo[16.3.1.1^2,6.1^8,12]tetracosa-1(22),2(24),3,5,8(23),9,11,18,20-nonaene], for which the IC50 in the test with MOLM-13 cells came out at 5.8 nM; at CDK9/CycT1 it was 1.8 nM; with A2780 cells, 5.9 nM; in the test on B16F10 cells it was 25 nM. Also, at CDK9/CycT1, the “Selectivity high ATP CDK9” value is given as 460.

With `CC(C)(C)OC(=O)N=S(C)(=O)Cc1cc2cc(c1)OCCCCNc1cc(ccc1F)-c1nc(ncc1F)N2` (racemic) [Example 1, (rac)-tert-butyl [{[3,20-difluoro-13-oxa-5,7,18,25-tetraazatetracyclo[17.3.1.1^2,6.1^8,12]pentacosa-1(23),2(25),3,5,8(24),9,11,19,21-nonaen-10-yl]methyl}(methyl)oxido-λ^6-sulfanylidene]carbamate], the IC50 amounted to 7.1 nM with MOLM-13 cells, 3.4 nM against CDK9/CycT1, 13 nM in the test on A2780 cells and 99 nM in the test with B16F10 cells. Further, on CDK9/CycT1, the “Selectivity high ATP CDK9” value was found to be 249.

Regarding `CS(=N)(=O)Cc1cc2cc(c1)OCCCCNc1cc(ccc1F)-c1nc(ncc1F)N2` (racemic) [Example 2, (rac)-3,20-difluoro-10-[(S-methylsulfonimidoyl)methyl]-13-oxa-5,7,18,25-tetraazatetracyclo[17.3.1.1^2,6.1^8,12]pentacosa-1(23),2(25),3,5,8(24),9,11,19,21-nonaene], the IC50 with MOLM-13 cells came out at 2 nM; at CDK9/CycT1 it was 1.8 nM; with A2780 cells, 1.2 nM; with B16F10 cells, 1.2 nM. Moreover, the “Selectivity high ATP CDK9” value at CDK9/CycT1 turned out to be 87.
